From ChEMBL document CHEMBL1201862, “PubChem BioAssay data set” (2004)
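The compound was tested at five concentrations on cells cultured in 96-well plates, with a 48-hour exposure period. At the GI50, growth is halved.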 The source made the active and inactive calls. Cut-off read from the data, not from the text of the source: active = GI50 up to about 1.1 µM and inactive = higher.

Experiments:
Assay in all cases: NCI tumour cell line growth inhibition, 48 h
786-0 = tested on: 786-0
A498 = tested on: A498
A549 = tested on: A549
ACHN = tested on: ACHN
BT-549 = tested on: BT-549
CAKI-1 = tested on: CAKI-1
COLO 205 = tested on: COLO 205
EKVX = tested on: EKVX
HCC 2998 = tested on: HCC 2998
HCT-116 = tested on: HCT-116
HCT-15 = tested on: HCT-15
HOP-62 = tested on: HOP-62
HOP-92 = tested on: HOP-92
IGROV-1 = tested on: IGROV-1
K562 = tested on: K562
KM12 = tested on: KM12
LOX IMVI = tested on: LOX IMVI
M14 = tested on: M14
MCF7 = tested on: MCF7
MDA-MB-231 = tested on: MDA-MB-231
MDA-MB-435 = tested on: MDA-MB-435
MDA-N = tested on: MDA-N
MOLT-4 = tested on: MOLT-4
Malme-3M = tested on: Malme-3M
NCI-H226 = tested on: NCI-H226
NCI-H23 = tested on: NCI-H23
NCI-H460 = tested on: NCI-H460
NCI-H522 = tested on: NCI-H522
NCI/ADR-RES = tested on: NCI/ADR-RES
OVCAR-3 = tested on: OVCAR-3
OVCAR-4 = tested on: OVCAR-4
OVCAR-5 = tested on: OVCAR-5
OVCAR-8 = tested on: OVCAR-8
PC-3 = tested on: PC-3
RPMI-8226 = tested on: RPMI-8226
RXF 393 = tested on: RXF 393
SF-268 = tested on: SF-268
SF-295 = tested on: SF-295
SF-539 = tested on: SF-539
SK-MEL-28 = tested on: SK-MEL-28
SK-MEL-2 = tested on: SK-MEL-2
SK-MEL-5 = tested on: SK-MEL-5
SK-OV-3 = tested on: SK-OV-3
SN12C = tested on: SN12C
SNB-19 = tested on: SNB-19
SNB-75 = tested on: SNB-75
SW-620 = tested on: SW-620
T47D = tested on: T47D
TK-10 = tested on: TK-10
U-251 = tested on: U-251
UACC-257 = tested on: UACC-257
UO-31 = tested on: UO-31
DU-145 = tested on: DU-145
HT-29 = tested on: HT-29
SR = tested on: SR
UACC-62 = tested on: UACC-62
HL-60 = tested on: HL-60
Hs-578T = tested on: Hs-578T

`c1cc2c(c(-c3c4ccccc4nc4ccccc34)c1)CC1(CC2)OCCO1` was tested, and the GI50 (786-0) was > 100 µM (inactive), the GI50 (A498) was > 100 µM (inactive) and the GI50 (A549) was > 100 µM (inactive). For the same compound, the GI50 (ACHN) was > 100 µM (inactive), the GI50 (BT-549) was > 100 µM (inactive) and the GI50 (CAKI-1) was > 100 µM (inactive). For the same compound, the GI50 (COLO 205) was > 100 µM (inactive), the GI50 (EKVX) was > 100 µM (inactive) and the GI50 (HCC 2998) was > 100 µM (inactive). The GI50 (HCT-116) was > 100 µM (inactive), the GI50 (HCT-15) was over 100 µM and the GI50 (HOP-62) was > 100 µM (inactive). The GI50 (HOP-92) was > 100 µM (inactive), the GI50 (IGROV-1) was > 100 µM (inactive) and the GI50 (K562) was > 100 µM (inactive). The GI50 (KM12) was > 100 µM (inactive), the GI50 (LOX IMVI) was > 100 µM (inactive) and the GI50 (M14) was > 100 µM (inactive). For the same compound, the GI50 (MCF7) was > 100 µM (inactive), the GI50 (MDA-MB-231) was > 100 µM (inactive) and the GI50 (MDA-MB-435) was > 100 µM (inactive). For the same compound, the GI50 (MDA-N) was > 100 µM (inactive), the GI50 (MOLT-4) was > 100 µM (inactive) and the GI50 (Malme-3M) was > 100 µM (inactive). The GI50 (NCI-H226) was > 100 µM (inactive), the GI50 (NCI-H23) was > 100 µM (inactive) and the GI50 (NCI-H460) was > 100 µM (inactive). The GI50 (NCI-H522) was > 100 µM (inactive), the GI50 (NCI/ADR-RES) was > 100 µM (inactive) and the GI50 (OVCAR-3) was > 100 µM (inactive). For the same compound, the GI50 (OVCAR-4) was > 100 µM (inactive), the GI50 (OVCAR-5) was > 100 µM (inactive) and the GI50 (OVCAR-8) was > 100 µM (inactive). The GI50 (PC-3) was > 100 µM (inactive), the GI50 (RPMI-8226) was > 100 µM (inactive) and the GI50 (RXF 393) was > 100 µM (inactive). For the same compound, the GI50 (SF-268) was > 100 µM (inactive), the GI50 (SF-295) was > 100 µM (inactive) and the GI50 (SF-539) was > 100 µM (inactive). For the same compound, the GI50 (SK-MEL-28) was > 100 µM (inactive), the GI50 (SK-MEL-2) was > 100 µM (inactive) and the GI50 (SK-MEL-5) was > 100 µM (inactive). For the same compound, the GI50 (SK-OV-3) was > 100 µM (inactive), the GI50 (SN12C) was > 100 µM (inactive) and the GI50 (SNB-19) was > 100 µM (inactive). The GI50 (SNB-75) was > 100 µM (inactive), the GI50 (SW-620) was > 100 µM (inactive) and the GI50 (T47D) was > 100 µM (inactive). For the same compound, the GI50 (TK-10) was > 100 µM (inactive), the GI50 (U-251) was > 100 µM (inactive) and the GI50 (UACC-257) was > 100 µM (inactive). The GI50 (UO-31) was > 100 µM (inactive).
`CCC(C)(C)C1CCC2c3c([nH]c4ccccc34)C3C(=O)N(c4ccc(OC)cc4)C(=O)C3C2C1` (stereo unspecified) was tested, and the GI50 (786-0) was 10.6 µM (inactive), the GI50 (A549) was 13.4 µM (inactive) and the GI50 (ACHN) was 11.2 µM (inactive). The GI50 (BT-549) was 16.1 µM (inactive), the GI50 (CAKI-1) was 10.4 µM (inactive) and the GI50 (COLO 205) was 10.3 µM (inactive). The GI50 (DU-145) was 5.4 µM (inactive), the GI50 (EKVX) was 35.4 µM (inactive) and the GI50 (HCC 2998) was 5.77 µM (inactive). For the same compound, the GI50 (HCT-116) was 9.08 µM (inactive), the GI50 (HCT-15) was 27.5 µM and the GI50 (HOP-62) was 10.2 µM (inactive). For the same compound, the GI50 (HT-29) was 11.2 µM (inactive), the GI50 (IGROV-1) was 15.7 µM (inactive) and the GI50 (K562) was 5.16 µM (inactive). The GI50 (KM12) was 3.48 µM (inactive), the GI50 (LOX IMVI) was 6.81 µM (inactive) and the GI50 (M14) was 18.8 µM (inactive). The GI50 (MCF7) was 3.94 µM (inactive), the GI50 (MDA-MB-231) was 13 µM (inactive) and the GI50 (MDA-MB-435) was 11 µM (inactive). The GI50 (MDA-N) was 18.7 µM (inactive), the GI50 (MOLT-4) was 3.62 µM (inactive) and the GI50 (Malme-3M) was 19.4 µM (inactive). The GI50 (NCI-H226) was 16.5 µM (inactive), the GI50 (NCI-H23) was 10.5 µM (inactive) and the GI50 (NCI-H460) was 7.4 µM (inactive). The GI50 (NCI-H522) was 7.16 µM (inactive), the GI50 (NCI/ADR-RES) was 15.6 µM (inactive) and the GI50 (OVCAR-3) was 2.19 µM (inactive). For the same compound, the GI50 (OVCAR-4) was 16.7 µM (inactive), the GI50 (OVCAR-5) was 15.3 µM (inactive) and the GI50 (OVCAR-8) was 12.9 µM (inactive). The GI50 (PC-3) was 9.79 µM (inactive), the GI50 (RXF 393) was 20.4 µM (inactive) and the GI50 (SF-268) was 15 µM (inactive). For the same compound, the GI50 (SF-295) was 20.8 µM (inactive), the GI50 (SF-539) was 12.4 µM (inactive) and the GI50 (SK-MEL-28) was 25.9 µM (inactive). The GI50 (SK-MEL-2) was 16.7 µM (inactive), the GI50 (SK-OV-3) was 31.9 µM (inactive) and the GI50 (SN12C) was 2.42 µM (inactive). The GI50 (SNB-19) was 25.6 µM (inactive), the GI50 (SNB-75) was 16.2 µM (inactive) and the GI50 (SR) was 39.8 µM (inactive). For the same compound, the GI50 (SW-620) was 17.4 µM (inactive), the GI50 (T47D) was 6.55 µM (inactive) and the GI50 (TK-10) was 16.7 µM (inactive). The GI50 (U-251) was 11.5 µM (inactive), the GI50 (UACC-257) was 34 µM (inactive) and the GI50 (UACC-62) was 54.7 µM (inactive). The GI50 (UO-31) was 24.4 µM (inactive).
`COC(=O)C1CCC(=O)N1C(c1cc(OC)c(OC)c(OC)c1)c1cc(OC)c(OC)c(OC)c1` (stereo unspecified) was tested, and the GI50 (786-0) was > 100 µM (inactive), the GI50 (A498) was > 100 µM (inactive) and the GI50 (A549) was > 100 µM (inactive). For the same compound, the GI50 (ACHN) was > 100 µM (inactive), the GI50 (DU-145) was > 100 µM (inactive) and the GI50 (EKVX) was > 100 µM (inactive). The GI50 (HCT-116) was > 100 µM (inactive), the GI50 (HCT-15) was over 100 µM and the GI50 (HL-60) was > 100 µM (inactive). For the same compound, the GI50 (HOP-62) was > 100 µM (inactive), the GI50 (HOP-92) was > 100 µM (inactive) and the GI50 (HT-29) was > 100 µM (inactive). For the same compound, the GI50 (Hs-578T) was > 100 µM (inactive), the GI50 (IGROV-1) was 94.6 µM (inactive) and the GI50 (K562) was > 100 µM (inactive). For the same compound, the GI50 (KM12) was > 100 µM (inactive), the GI50 (LOX IMVI) was > 100 µM (inactive) and the GI50 (M14) was > 100 µM (inactive). The GI50 (MCF7) was > 100 µM (inactive), the GI50 (MDA-MB-231) was > 100 µM (inactive) and the GI50 (MDA-MB-435) was > 100 µM (inactive). The GI50 (MDA-N) was > 100 µM (inactive), the GI50 (MOLT-4) was > 100 µM (inactive) and the GI50 (NCI-H460) was > 100 µM (inactive). The GI50 (NCI-H522) was > 100 µM (inactive), the GI50 (OVCAR-3) was > 100 µM (inactive) and the GI50 (OVCAR-5) was > 100 µM (inactive). The GI50 (OVCAR-8) was > 100 µM (inactive), the GI50 (PC-3) was > 100 µM (inactive) and the GI50 (RPMI-8226) was > 100 µM (inactive). The GI50 (SF-268) was > 100 µM (inactive), the GI50 (SF-295) was > 100 µM (inactive) and the GI50 (SF-539) was > 100 µM (inactive). The GI50 (SK-MEL-28) was > 100 µM (inactive), the GI50 (SK-MEL-2) was > 100 µM (inactive) and the GI50 (SK-OV-3) was > 100 µM (inactive). The GI50 (SN12C) was > 100 µM (inactive), the GI50 (SNB-19) was > 100 µM (inactive) and the GI50 (SNB-75) was > 100 µM (inactive). The GI50 (SR) was > 100 µM (inactive), the GI50 (SW-620) was > 100 µM (inactive) and the GI50 (T47D) was > 100 µM (inactive). The GI50 (TK-10) was > 100 µM (inactive), the GI50 (U-251) was > 100 µM (inactive) and the GI50 (UACC-257) was > 100 µM (inactive). For the same compound, the GI50 (UACC-62) was > 100 µM (inactive) and the GI50 (UO-31) was > 100 µM (inactive).
